Results on six molecules are retold here after ChEMBL document CHEMBL4392852, “Synthesis and characterization of hydrogen peroxide activated estrogen receptor beta ligands” (Bioorg Med Chem, 2019).

Series [1] in a line: Retention time of the compound at 150 uM by HPLC analysis. Format: physicochemical.
The nature of series [2]: Drug metabolism in pH 7.4 PBS assessed as formation of DPN at 150 uM at 37 degC incubated for 1 hr in presence of 5 fold excess superoxide by HPLC analysis relative to untreated control.
Series [3] is described as follows: Drug metabolism in pH 7.4 PBS in absence of H2O2 at 75 uM incubated at 37 degC for 4 hrs by UV spectroscopy.
Series [4] concerns the target T1, Estrogen receptor beta (Homo sapiens, UniProt Q92731). Put plainly: Ratio of RBA for DPN to RBA for test compound for displacement of fluormone tracer from full length human recombinant ERbeta relative to estradiol.
Series [5] has as its target T2, Estrogen receptor (Homo sapiens) (UniProt P03372).
T2 sequence (whole entry): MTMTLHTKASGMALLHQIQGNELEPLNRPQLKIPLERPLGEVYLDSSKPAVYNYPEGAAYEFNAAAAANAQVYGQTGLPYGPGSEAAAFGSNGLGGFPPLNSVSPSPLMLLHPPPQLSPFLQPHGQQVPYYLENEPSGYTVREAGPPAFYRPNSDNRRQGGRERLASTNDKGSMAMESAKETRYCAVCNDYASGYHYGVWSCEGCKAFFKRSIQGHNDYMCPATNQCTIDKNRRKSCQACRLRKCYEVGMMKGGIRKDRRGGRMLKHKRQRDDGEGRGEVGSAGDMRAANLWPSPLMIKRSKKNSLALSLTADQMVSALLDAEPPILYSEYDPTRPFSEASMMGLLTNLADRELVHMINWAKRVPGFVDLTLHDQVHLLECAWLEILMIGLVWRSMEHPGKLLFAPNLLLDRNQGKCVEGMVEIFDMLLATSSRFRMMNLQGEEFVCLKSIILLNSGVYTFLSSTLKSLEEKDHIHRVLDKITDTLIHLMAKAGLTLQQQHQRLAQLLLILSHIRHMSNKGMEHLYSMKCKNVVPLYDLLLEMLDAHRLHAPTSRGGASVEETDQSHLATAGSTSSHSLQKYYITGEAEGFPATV
Put plainly: Ratio of RBA for DPN to RBA for test compound for displacement of fluormone tracer from full length human recombinant ERalpha relative to estradiol.

A short description of series [6]: Drug metabolism in pH 7.4 PBS assessed as formation of DPN at 150 uM at 37 degC incubated for 1 hr in presence of 5 fold excess TBHP by HPLC analysis.
The nature of series [7]: Drug metabolism in pH 7.4 PBS assessed as formation of DPN at 150 uM at 37 degC incubated for 1 hr in presence of 5 fold excess nitric oxide by HPLC analysis.
The nature of series [8]: Drug metabolism in pH 7.4 PBS assessed as second order rate constant for H2O2-mediated formation of DPN at 75 uM at 37 degC incubated for over 4 hrs by UV spectroscopy.
The nature of series [9]: Drug metabolism in pH 7.4 PBS assessed as formation of DPN at 150 uM at 37 degC incubated for 1 hr in presence of 5 fold excess hypochlorite by HPLC analysis relative to untreated control.
Series [10] in a line: Drug metabolism in pH 7.4 PBS assessed as formation of DPN at 150 uM at 37 degC incubated for 1 hr in presence of 5 fold excess hydroxyl radical by HPLC analysis.
Series [11] can be described thus: Drug metabolism in pH 7.4 PBS assessed as H2O2-mediated formation of DPN at 75 uM at 37 degC incubated for 10 mins by UV spectroscopy.
A short description of series [12]: Drug metabolism in pH 7.4 PBS assessed as formation of DPN at 150 uM at 37 degC incubated for 1 hr in presence of 5 fold excess H2O2 by HPLC analysis.
Series [13] can be described thus: Drug metabolism in pH 7.4 PBS assessed as H2O2-mediated conversion to E2 incubated at 500 uM at 37 degC for 30 mins by GC-MS analysis.
The target in series [14] is T2, Estrogen receptor (Homo sapiens). Description: Ratio of RBA for estradiol RBA for test compound for displacement of fluormone tracer from full length human recombinant ERalpha relative to estradiol.
For series [15], the target named is T1, Estrogen receptor beta. Put plainly: Ratio of RBA for estradiol RBA for test compound for displacement of fluormone tracer from full length human recombinant ERbeta relative to estradiol.
The nature of series [16]: Drug metabolism in pH 7.4 PBS assessed as H2O2-mediated conversion to phenol by measuring second order rate constant for disappearance of starting material at 75 uM incubated at 37 degC for 4 hrs by UV spectroscopy.
A short description of series [17]: Drug metabolism in pH 7.4 PBS assessed as H2O2-mediated conversion to E2 by measuring retention time of product at 500 uM incubated at 37 degC for 30 mins by GC-MS analysis. As to conditions: buffer, pH 7.4, 0.5 h. Type of series: physicochemical.
The target in series [18] is T2, Estrogen receptor (Homo sapiens). Put plainly: Ratio of RBA for Estrone to RBA for test compound for displacement of fluormone tracer from full length human recombinant ERalpha relative to estradiol.
Series [19] is described as follows: Drug metabolism in pH 7.4 PBS assessed as H2O2-mediated conversion to E1 by measuring second order rate constant incubated at 75 uM at 37 degC for 4 hrs by UV spectroscopy.
For series [20], the target named is T1, Estrogen receptor beta. Put plainly: Ratio of RBA for Estrone to RBA for test compound for displacement of fluormone tracer from full length human recombinant ERbeta relative to estradiol.
Series [21] has as its target T1, Estrogen receptor beta. Put plainly: Activation of human ERbeta assessed as induction of transcriptional activation incubated for 24 hrs by luciferase reporter gene assay.
Series [22] deals with T1, Estrogen receptor beta. Put plainly: Activation of human ERbeta assessed as induction of transcriptional activation incubated for 24 hrs in presence of 100 uM H2O2 by luciferase reporter gene assay.
Series [23] concerns the target T1, Estrogen receptor beta. Description: Activation of human ERbeta assessed as induction of transcriptional activation incubated for 24 hrs in presence of 50 uM H2O2 by luciferase reporter gene assay. For orientation: Reporter assays use an easily measured gene product as a stand-in for the process of interest.

pEC50: −log10 of the molar value.

T1 sequence (Q92731 whole entry): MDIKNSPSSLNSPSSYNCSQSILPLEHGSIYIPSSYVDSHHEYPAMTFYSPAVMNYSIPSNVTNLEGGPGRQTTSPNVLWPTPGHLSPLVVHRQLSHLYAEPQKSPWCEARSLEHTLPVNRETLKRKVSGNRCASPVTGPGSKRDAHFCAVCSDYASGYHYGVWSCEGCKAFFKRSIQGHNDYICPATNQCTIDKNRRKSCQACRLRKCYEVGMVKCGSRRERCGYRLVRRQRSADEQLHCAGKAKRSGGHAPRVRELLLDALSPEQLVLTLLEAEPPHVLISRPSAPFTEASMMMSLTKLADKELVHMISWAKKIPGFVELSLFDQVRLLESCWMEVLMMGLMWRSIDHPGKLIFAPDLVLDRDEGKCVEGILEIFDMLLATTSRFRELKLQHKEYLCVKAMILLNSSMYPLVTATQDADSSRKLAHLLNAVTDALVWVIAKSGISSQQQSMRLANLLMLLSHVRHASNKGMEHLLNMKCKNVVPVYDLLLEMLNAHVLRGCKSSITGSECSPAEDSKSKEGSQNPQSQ

`N#CC(Cc1ccc(O)cc1)c1ccc(O)cc1` (centres undefined) [DIARYLPROPIONITRILE] returned a Retention_time in [1] of 19 min.
For the molecule `CC1(C)OB(c2ccc(CC(C#N)c3ccc(O)cc3)cc2)OC1(C)C` (centres undefined), the Drug metabolism in series [2] was 22%; in series [3], “Metabolite not detected”; in series [6], “Metabolite not detected”; in [7] it was “Metabolite not detected”; in [9] it was 50 to 80%; in series [10], “Metabolite not detected”. The Drug metabolism result in series [11] and in series [12] was “Metabolite detected” throughout. In addition, the results for the Ratio (at Estrogen receptor beta [4]; in series [5]) were 5 and 4.5, respectively. The molecule further gave a Retention_time in series [1] of 22 min. Further, the K in [8] is 6.46 M⁻¹ s⁻¹.
For the molecule `CC1(C)OB(c2ccc3c(c2)CC[C@@H]2[C@@H]3CC[C@]3(C)[C@@H](O)CC[C@@H]23)OC1(C)C`, the figures for the Drug metabolism result in [3] and in [13] were “Metabolite not detected” and “Metabolite detected”, respectively. The Ratio (in series [14]; at Estrogen receptor beta [15]) was 3 in each case. Also, in series [16], the K was 5.57 M⁻¹ s⁻¹. The Retention_time in series [17] came out at 12.5 min.
Regarding `CC1(C)OB(c2ccc(C(C#N)Cc3ccc(O)cc3)cc2)OC1(C)C` (centres undefined), the Drug metabolism was 22% in series [2]; “Metabolite not detected” in series [3]; “Metabolite not detected” in [6]; “Metabolite not detected” in [7]; 50 to 80% in series [9]; “Metabolite not detected” in series [10]. For the same molecule, the Drug metabolism result in series [11] and in series [12] was “Metabolite detected” in each case. Further, the figures for the Ratio (on Estrogen receptor beta [4]; in [5]) were 5 and 6, respectively. The molecule further returned a Retention_time in [1] of 23 min. In [8], the K was 5.92 M⁻¹ s⁻¹.
Take `CC1(C)OB(c2ccc3c(c2)CC[C@@H]2[C@@H]3CC[C@]3(C)C(=O)CC[C@@H]23)OC1(C)C`: the Ratio (in [18]; at Estrogen receptor beta [20]) was 6 in each case. In addition, the Drug metabolism entry in [3] is on record as “Metabolite not detected”. The K in series [19] is 4.81 M⁻¹ s⁻¹.
`CC1(C)OB(c2ccc(CC(C#N)c3ccc(B4OC(C)(C)C(C)(C)O4)cc3)cc2)OC1(C)C` (centres undefined): the Drug metabolism in [2] is 22%; in series [3], “Metabolite not detected”; in series [6], “Metabolite not detected”; in series [7] it was “Metabolite not detected”; in series [9] it was 50 to 80%; in series [10], “Metabolite not detected”. In addition, the Drug metabolism entry in series [11] and in [12] was “Metabolite detected” in each case. In addition, the pEC50 on Estrogen receptor beta [21] was 6.33; at Estrogen receptor beta [22] it was 8.92; on Estrogen receptor beta [23], 8.21. Further, on Estrogen receptor beta [4], the Ratio came out at 20. The Retention_time in series [1] turned out to be 28 min. The K in series [8] came out at 5.14 M⁻¹ s⁻¹.

One may read the pEC50 as −log10 of the EC50, conventionally taken in molar units.
